The numbers were not newly measured in patent publication US5869023A, “Composition for MRI comprising both a positive and a negative contrast agent” (Nycomed Imaging AS, priority 1993, dated 1999), which cites them from elsewhere.

For series [1] the following is noted: in vivo; cited from earlier work.
The test system of series [2] is infarcted and nonischemic myocardium. To be noted: porcine model; cited from earlier work.

`CNC[C@H](O)[C@@H](O)[C@H](O)[C@H](O)CO.CNC[C@H](O)[C@@H](O)[C@H](O)[C@H](O)CO.O=C([O-])CN(CCN(CC(=O)[O-])CC(=O)O)CCN(CC(=O)[O-])CC(=O)O.[Gd+3]` [Gd DTPA-dimeglumine]: in series [1], the “distribution after intravenous administration” value is “rapidly distributes throughout the extracellular fluid (ECF)”.
Consider `O=C([O-])CN(CCN(CC(=O)[O-])CC(=O)O)CCN(CC(=O)[O-])CC(=O)O.[Gd+3]` [Gd-DTPA, reference compound], for which the “distribution / enhancement in 6-hour-old myocardial infarction” value in series [2] was “infarct accumulation”.
